Literature values as cited in patent US12599565B2, “Stable benzimidazole formulation” (DEXCEL PHARMA TECHNOLOGIES LTD., priority 2008, dated 2026).

COc1ccc2[nH]c([S+]([O-])Cc3ncc(C)c(OC)c3C)nc2c1 (centres unmarked) [Omeprazole, 5-methoxy-2(((4-methoxy-3,5-dimethyl-2-pyridinyl)methyl)sulfinyl)-1H-benzimidazole]
half life (pH 11): about 300 days | half-life of degradation (pH values below 4.0): less than 10 minutes
